From ChEMBL document CHEMBL3137667, “[Drug-induced liver injury; fourteenth updated edition of the bibliographic database of liver injuries and related drugs]” (Gastroenterol Clin Biol, 2004)

Assays:
[1] = human
[2] = human, serum
[3] = human; remark: listed apart in the source
[4] = Highest frequency of acute liver toxicity observed during clinical trials, expressed as a percentage. [column '% AIGUE' in source]; conditions: human
[5] = human, serum; remark: listed apart in the source
[6] = human; remark: listed apart in the source
[7] = human; remark: listed apart in the source
[8] = human; remark: listed apart in the source
[9] = human; remark: listed apart in the source
[10] = human; remark: listed apart in the source
[11] = human, serum, 4383 h
[12] = Highest frequency of moderate liver toxicity observed during clinical trials, expressed as a percentage. [column '% BIOL' in source]; conditions: human
[13] = human; remark: listed apart in the source
[14] = human; remark: listed apart in the source
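Wherever Hepatotoxicity (association with vascular disease) is given: count of indexed literature references reporting vascular liver injury in humans, e.g. peliosis hepatitis, hepatic veno-occlusive disease or Budd-Chiari syndrome.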
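Wherever Hepatotoxicity (benign tumour) is given: value is a count of indexed literature references citing a benign tumour confirmed by histopathology.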
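Wherever Hepatotoxicity (choleostasis) is given: human cholestatic liver injury, shown by histopathology or by peak ALT or AST elevation over alkaline phosphatase ratio below 2, value counts indexed literature reports.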
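Wherever Hepatotoxicity (chronic liver disease) is given: chronic liver injury confirmed by histopathology or persistently raised serum aminotransferase activity beyond 6 months, value given as the count of indexed literature references.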
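Wherever Hepatotoxicity (cirrhosis) is given: value is a count of indexed literature references reporting cirrhosis confirmed by histopathology.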
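Wherever Hepatotoxicity (cytolytic) is given: human cytolytic liver injury, shown by histopathology or by a ratio above 5 of peak ALT or AST elevation to alkaline phosphatase elevation, value counts indexed references.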
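Wherever Hepatotoxicity (granulomatous hepatitis) is given: value is a count of indexed literature references reporting granulomatous liver disease confirmed by histopathology.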
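Wherever Hepatotoxicity (malignant tumour) is given: malignant tumour confirmed by histopathology, value gives the count of indexed literature references reporting it.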
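Wherever Hepatotoxicity (severe hepatitis) is given: human clinical data: severe hepatitis, meaning potentially life-threatening liver failure or clinically observed cases, the value counts how many indexed literature references report it.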
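Wherever Hepatotoxicity (steatosis) is given: steatosis confirmed by histopathology, value is the count of indexed references.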

Structure (SMILES)	Hepatotoxicity (severe hepatitis) [1]	Hepatotoxicity (acute) [2]	Hepatotoxicity (choleostasis) [3]	Hepatotoxicity (acute) [4]	Hepatotoxicity (moderate) [5]	Hepatotoxicity (association with vascular disease) [6]	Hepatotoxicity (malignant tumour) [7]	Hepatotoxicity (granulomatous hepatitis) [8]	Hepatotoxicity (steatosis) [9]	Hepatotoxicity (cytolytic) [10]	Hepatotoxicity (chronic liver disease) [11]	Hepatotoxicity (moderate) [12]	Hepatotoxicity (cirrhosis) [13]	Hepatotoxicity (benign tumour) [14]
CO/N=C(\C(=O)N[C@@H]1C(=O)N2C(C(=O)[O-])=C(C[n+]3ccc(N)n3CCO)CS[C@H]12)c1csc(N)n1 [CEFOSELIS]	0	0	0	0%	33	0	0	0	0	0	0	25%	0	0
CO[C@@]1(NC(=O)C2SC(=C(C(N)=O)C(=O)O)S2)C(=O)N2C(C(=O)O)=C(CSc3nnnn3C)CS[C@@H]21 (stereo partly specified) [CEFOTETAN]	0	0	0	0%	10	0	0	0	0	0	0	37.5%	0	0
CO/N=C(\C(=O)N[C@@H]1C(=O)N2C(C(=O)[O-])=C(C[n+]3ccn4ncccc43)CS[C@H]12)c1nsc(N)n1 [CEFOZOPRAN]	0	0	0	0%	68	0	0	0	0	0	0	50%	0	0
O=C(O)C1=C(C[n+]2ccc(CCS(=O)(=O)[O-])cc2)CS[C@@H]2[C@H](NC(=O)[C@H](NC(=O)c3[nH]cnc3C(=O)O)c3ccccc3)C(=O)N12 [CEFPIMIZOLE]	0	0	0	0%	30	0	0	0	0	0	0	18.8%	0	0
